Results taken from US10106523B2, “Amide compound” (ASTELLAS PHARMA INC., priority 2014, dated 2018).

Experiments:
[1] = biological target: T1, human EP4 receptor (Homo sapiens, UniProt P35408); test: Human EP4 receptor antagonistic action by measurement of cAMP amount in human Jurkat cells; type: cell-based; details: PGE2 100 nmol/L, average of three experiments, read-out: IC50 value with respect to the cAMP production action by PGE2 in human Jurkat cells
T1 construct: purchased Chemicon
Description: Test Example 3: Evaluation Test of Human EP4 Receptor Antagonistic Action by Measurement of cAMP Amount in Human Jurkat Cells
Jurkat cells (derived from human leukemia T lymphoma) were cultured under the conditions of 37° C. and 5% CO2, using an RPMI1640 culture medium (product No. 11879020, Invitrogen Inc.) with 10% fetal bovine serum (FBS) added. After proliferation up to semiconfluency, indomethacin having a final concentration of […] was added thereto, and the cells were further cultured for 18 hours. These cells were collected in a 15 mL Spitz tube, prepared at 1×10^6 cells/mL using a Cell Banker (Mitsubishi Kagaku Iatron), and stored at −80° C. […]
A cAMP HiRange kit (Cisbio international) was used for cAMP measurement. […] After incubation, the fluorescence intensity of the cryptate at 620 nm and the fluorescence intensity of the d2 at 665 nm were measured using ARVO1420 (PerkinElmer). The cAMPs at 280, 70, 17.5, 4.38, 1.09, 0.27, and 0.068 nmol/L were added to each well and the fluorescence intensity was measured as described above to create a standard curve. […] An average value was calculated from three experiment results.

[2] = biological target: rat EP4 receptor (Rattus norvegicus, UniProt P43114); test: Evaluation test of rat EP4 receptor affinity ([3H]PGE2 binding, membrane fraction of HEK-293 cells); set-up: expressed in transfected cells; host or cells: HEK-293 (ATCC CRL-1573), transient; details: 0.3 nmol/L [3H]PGE2, rat EP4 cell membrane fraction, room temperature 1 hour; read-out: Ki value with respect to the rat EP4 receptor
rat EP4 receptor, sequence (P43114 whole entry): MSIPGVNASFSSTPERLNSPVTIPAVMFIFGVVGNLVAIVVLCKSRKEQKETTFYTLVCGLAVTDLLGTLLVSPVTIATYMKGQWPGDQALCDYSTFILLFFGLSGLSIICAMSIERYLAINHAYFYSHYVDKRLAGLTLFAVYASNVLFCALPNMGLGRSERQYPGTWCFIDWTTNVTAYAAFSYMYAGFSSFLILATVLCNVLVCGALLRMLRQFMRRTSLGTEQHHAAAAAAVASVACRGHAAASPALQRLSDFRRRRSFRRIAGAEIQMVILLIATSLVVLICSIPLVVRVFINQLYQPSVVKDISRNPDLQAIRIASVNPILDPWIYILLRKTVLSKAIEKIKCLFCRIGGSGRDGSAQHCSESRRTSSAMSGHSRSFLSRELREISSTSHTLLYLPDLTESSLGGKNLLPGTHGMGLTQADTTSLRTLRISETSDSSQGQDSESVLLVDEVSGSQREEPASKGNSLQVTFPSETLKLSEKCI
Description: Test Example 1: Evaluation Test of Rat EP4 Receptor Affinity
Construction of Rat EP4 Receptor Expressing Vector:
A rat EP4 receptor gene (GenBank accession No.: NM_032076.1) was transfected into an expression vector pcDNA3.1-V5-His-TOPO (Invitrogen Inc.).
Transient Expression of Rat EP4 Receptor:
The expression vector of a rat EP4 receptor was transfected into an HEK-293 cell (ATCC No.: CRL-1573). The transfection was carried out according to an appended instruction, using Lipofectoamine (registered trademark) 2000 reagent (Invitrogen Inc.). After the transfection, the cells were cultured in an α-MEM culture medium for 20 to 24 hours.
Preparation of Membrane Fraction:
The culture medium was removed by aspiration, 10 mL of cooled phosphate buffered saline (PBS) was added thereto per 15 cm dish, and the cells were scraped using a cell scraper (Sumitomo Bakelite). […]
[^3H]PGE2 and a cell membrane fraction were diluted with an assay buffer (50 mmol/L HEPES-NaOH, 10 mmol/L MgCl2, pH 7.5), and the test compound and unlabeled PGE2 (Cayman) were diluted with DMSO and the assay buffer. […] The radioactivity was measured using a TopCount (Perkin Elmer). […] The specific binding amount was determined by subtracting the non-specific binding amount from the total binding amount. The Ki value was calculated according to a standard method.

T1 sequence (P35408 whole entry): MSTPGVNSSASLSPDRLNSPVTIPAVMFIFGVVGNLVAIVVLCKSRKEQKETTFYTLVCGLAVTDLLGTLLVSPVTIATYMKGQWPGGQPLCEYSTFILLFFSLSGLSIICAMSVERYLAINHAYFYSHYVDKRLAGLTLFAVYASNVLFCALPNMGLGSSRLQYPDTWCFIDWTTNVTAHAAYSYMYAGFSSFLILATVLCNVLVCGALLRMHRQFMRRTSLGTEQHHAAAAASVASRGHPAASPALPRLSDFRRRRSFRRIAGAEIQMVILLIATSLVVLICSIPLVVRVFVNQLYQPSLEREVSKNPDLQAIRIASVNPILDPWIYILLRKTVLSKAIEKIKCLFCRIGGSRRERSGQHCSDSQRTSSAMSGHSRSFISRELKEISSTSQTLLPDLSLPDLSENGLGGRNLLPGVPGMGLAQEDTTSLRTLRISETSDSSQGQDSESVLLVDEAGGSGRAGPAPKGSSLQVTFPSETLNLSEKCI

IC50 [1]: 0.16 nM
Ki [2]: 0.874 nM
Structure (SMILES): Cc1nn(Cc2cc3ccccc3cn2)c(C(=O)N[C@@H](C)c2ccc(C(=O)O)cc2)c1Br [Compound A, 4-[(1S)-1-({[4-bromo-1-(isoquinolin-3-ylmethyl)-3-methyl-1H-pyrazol-5-yl]carbonyl}amino)ethyl]benzoic acid]
